Laboratory results reported in patent US8969081B2, “Caudal motor neuron derived from embryonic stem cells under conditions essentially free of any retinoid” (The Trustees of Columbia University in the City of New York, priority 2008, dated 2015).
“Also recorded” adds a separate entry of the source.

Legend:
Hb9-GFP ES cells [1] = test: Efficiency of motor neuron specification (Hb9-GFP+ cells); format: cell-based, mouse
[2] = system: embryoid bodies from ES cells; test: Dorso-ventral progenitor marker expression in embryoid bodies; format: cell-based, mouse; conditions: 1 μM HhAg1.3, absence of RA
Experimental: (§1) Immunocytochemistry on ES cell-derived MNs and EBs was performed as previously described (Wichterle et al., 2002). Antibodies against the following proteins were used in the analysis during this study: Otx2, Hoxa5, Hoxc8, Hoxc6, Hoxc9, Hoxd9, Hoxd10, Foxp1, Lhx3, Pea3, Scip, NeuN, dsRed, NF.
To determine whether motor neuron progenitors are correctly specified at 1 μM concentrations of HhAg1.3 expression pattern of a series of DV progenitor markers were examined.
The endogenous Shh signaling centers have been identified as clusters of Foxa2+ cells expressing Shh (FIG. 2D).
Immunocytochemistry on dissociated ES-MNs and cryosectioned EBs was performed as previously described (Wichterle et al., 2002). In this study, the following antibodies were used: goat anti-Meis1 (Santa Cruz Biotechnology, SCB), mouse anti-Lhx3 (Developmental Studies Hybridoma Bank, DSHB), mouse anti-Lhx1/2 (DSHB), mouse anti-Nkx2.2 (DSHB), goat anti-Hoxc6 (SCB), rabbit anti-Hoxd9 (SCB), rabbit anti-Otx2 (kindly provided by G. Corte), mouse anti-Isl1 (DSHB), mouse anti-Hoxc 8 (DSHB), mouse anti-NeuN (Chemicon), rabbit anti-dsRed (Clontech), rabbit anti-Brachyury (SCB), mouse anti-Sonic Hedgehog (DSHB), mouse anti-FoxA2 (DSHB), mouse anti-Pax7 (DSHB), mouse anti-Hb9 (DSHB), guinea pig anti-Hb9 (kindly provided by the Project ALS laboratory). […]

Hb9-GFP ES cells [3] = conditions: MNs generated in the presence of RA (Wichterle et al., 2002); cited from earlier work
[4] = system: differentiating ES cells / ES-MNs; test: Rostro-caudal patterning of differentiating ES cells (Hox / positional marker immunostaining); format: cell-based, mouse
Experimental: Differentiation of cervical level motor neurons from mouse ES cells was performed as previously described (Wichterle et al., 2002). For differentiation of caudal brachial level MNs from ES cells, ES cells were grown in ES cell medium for two days, dissociated and plated into non-adherent tissue culture dishes using ADFNK medium at a density of 20,000 cells/ml. Medium is changed each day but not on Day 3 and Day 4 of differentiation (three and four days after dissociation of ES cells and plating into differentiation medium, respectively). Addition of any factors to differentiating embryonic bodies (EBs) was performed on Day 3. These included: 1 μg/ml Dickopf-1 Dkk1 (R&D Systems), FGF Receptor Inhibitor (PD173074, 100 nM final concentration), FGFb (Recombinant Human, FTF-basic, 120-17, PeproTech), rhGdf11 (R&D Systems, Cat#1958-GD). GDNF (10 ng/ml, R&D Systems) was supplemented on Day 5 of differentiation in selected cultures.
(§2) For immunocytochemical analysis, embryonic bodies (EBs) were dissociated using 0.05% Trypsin-EDTA on Day 6 and plated at low densities on laminin coated coverslips using ADFNB medium supplemented with 10 ng/ml Glial cell-derived neurotrophic factor (GDNF). For quantification of MN subtypes, EBs were collected on Day 6 and dissociated using 0.05 Trypsin-EDTA. Dissociated cells were plated on laminin coated coverslips using ADFNB medium (DMEM/F12, Neurobasal, 1 ml B27 50× supplement and optional 5 ng/ml of GDNF to enhance survival of MN cultures) and fixed with 4% PFA one day later.
as §1
(§3) For each experiment, 10 distinct randomized image fields were taken using a confocal microscope LSM Zeiss Meta 510. Expression of all markers used for quantifications was gated to GFP positive cells, ES cell-derived spinal MNs. Images were analyzed for the expression of the above stated markers in the context of the ES cell-derived caudal brachial MNs. Each quantification is the result of at least three independent experiments (three independent differentiation experiments).
All experiments were performed with HBG3 ES cell line harboring Hb9-GFP transgene (Wichterle et al., 2002) and key experiments were confirmed using a control MM13 ES cell line. Differentiation of HBG3 ES cell line under RA/Hh conditions into rostral cervical MNs was performed as previously described (Wichterle et al., 2002; Wichterle and Peljto, 2008). For production of cervical MNs, ES cells were plated at 50,000 cells/ml in ADFNK differentiation medium [Advanced D-MEM/F-12 (Invitrogen): Neurobasal medium (Invitrogen) (1:1), 10% Knockout Serum Replacement (Invitrogen), […] L-Glutamine (Invitrogen), 0.1 mM β-mercaptoethanol (Sigma), and Pen/Strep (Invitrogen)]. Medium was completely changed on days 1, 2 and of differentiation. EBs were split 1:4 on day 2 of differentiation and the medium was supplemented with 1 μM all-trans retinoic acid (RA, Sigma) and Hh agonist (0.5 μM SAG, Calbiochem or 1 μM HhAg1.3, (Frank-Kamenetsky et al., 2002)). To generate caudal brachial level MNs from ES cells under FGF/Hh conditions, ES cells were plated into non-adherent tissue culture dishes in ADFNK medium (˜20,000 cells/ml). Embryoid bodies (EBs) were split 1:4 on day 2 of differentiation and the medium was changed on days 1, 2 and 5. Selected cultures were supplemented with the following reagents: 10 nM-1 μM RA, 10 nM-1 μM Hh Agonist, 1 μg/ml recombinant mouse Dickkopf-1 (R&D Systems), 50-100 nM FGF/VEGF Receptor Tyrosine Kinase Inhibitor (PD173074, Calbiochem) (Mohammadi et al., 1998), 100-625 ng/ml recombinant human bFGF (PeproTech), 20 ng/ml recombinant human Gdf11/Bmp11 (R&D Systems), 10 ng/ml recombinant rat GDNF (R&D Systems). […]

ES-MNs = test: Columnar and divisional identity of ES-MNs (FoxP1, Lhx3, Lhx1 immunostaining); format: cell-based, mouse
Experimental: as §2, §1
as §3, with “experiments). […]” for “experiments).”

Compound | Percentage of Hb9-GFP+ cells with increasing Hh agonist (Hb9-GFP ES cells [1]; 10 nM, 50 nM, 100 nM, 1 μM on day 2, EBs dissociated day 7) | Motor neuron generation at high HhAg1.3 concentrations (Hb9-GFP ES cells [1]; ADFNK medium, >500 nM) | GFP positive MNs, % of all cells (Hb9-GFP ES cells [1]; ADFNK medium, absence or low concentrations of HhAg1.3 (<100 nM) added Day 2, Day 6) | Expression of Nkx2.2 and Foxa2 (Hnf3β) [2] | Expression of Pax7, Pax6 and Olig2 [2] | HhAg1.3 concentration that efficiently induces cervical MNs (Hb9-GFP ES cells [3]) [µM] | Hoxc8 expression in ES-MNs, loss after RA ([4]; 10 nM RA on day 3 of differentiation, two independent experiments) [%] | Rostro-caudal positional marker expression / segmental identity ([4]; Example 1, EBs supplemented on Day 3, markers examined two to four days later) | Rostro-caudal identity of MNs after RA ([4]; Example 2, 10 nM-1 μM on day 3, stained day 7) | Rostro-caudal identity (Hoxc8+ ES-MNs) after late RA ([4]; RA on day 4 or 5 of differentiation) | FoxP1+ ES-MNs expressing Lhx1 (ES-MNs; RA (1 μM) on day 5 of differentiation, analysed day 7) [%] | Lhx1+ BrdU- ES-MNs (ES-MNs; RA on day 5, BrdU from day 5 onwards, dissociated day 6) [%]
CNC1CCC(N(Cc2cccc(-c3ccncc3)c2)C(=O)c2sc3ccccc3c2Cl)CC1 (stereo not drawn) [HhAg1.3] | does not significantly change the percentage of Hb9-GFP^+ cells | failure to generate motor neurons | 8-10% | most cells within embryoid bodies expressed the ventral-most markers | not detected | 0.5 to 2 |  |  |  |  |  | 
CC1=C(/C=C/C(C)=C/C=C/C(C)=C/C(=O)O)C(C)(C)CCC1 [RA, all-trans retinoic acid, reference compound] |  |  |  |  |  |  | ~10 | induced rostral cervical identity characterized by Hoxa5 expression | specification of Hoxa5^+ rostral cervical MNs; also recorded: generation of Hoxa5^+ cervical MNs lacking expression of more posterior Hox genes | did not change the rostro-caudal positional identity; also recorded: does not result in significant changes in the numbers of Hoxc8^+ ES-MNs | 15 | ~10
